Source: patent EP0726263A2, “Herbicidal (1,3,4)oxadiazoles and thiadiazoles” (American Cyanamid Company, priority 1995, dated 1996)

Key:
Format in all cases: in vivo
Abutilon theophrasti [1] = test: Herbicidal activity, preemergence test; conditions: pre; sprayed onto soil, 800 g of active material per hectare; evaluated 3 weeks after treatment
Summary of the method: (§1)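 Spray dose 800 g a.i./ha in 900 L/ha; acetone stock with 0.4% Triton X-155, water-diluted. Pre: sown loam soil, read at 3 wk. Post: seedling plants, read at 2 wk. Visual 0-9 rating vs untreated.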

Matricaria inodora [2] = test: Herbicidal activity, preemergence test; conditions: pre; sprayed onto soil, 800 g of active material per hectare; evaluated 3 weeks after treatment
Summary of the method: as §1

Gossypium hirsutum [3] = test: Herbicidal activity, preemergence test; conditions: pre; sprayed onto soil, 800 g of active material per hectare; evaluated 3 weeks after treatment
Summary of the method: as §1

Chenopodium album [4] = test: Herbicidal activity, preemergence test; conditions: pre; sprayed onto soil, 800 g of active material per hectare; evaluated 3 weeks after treatment
Summary of the method: as §1

Hordeum vulgare [5] = test: Herbicidal activity, preemergence test; conditions: pre; sprayed onto soil, 800 g of active material per hectare; evaluated 3 weeks after treatment
Summary of the method: as §1

Amaranthus retroflexus [6] = test: Herbicidal activity, preemergence test; conditions: pre; sprayed onto soil, 800 g of active material per hectare; evaluated 3 weeks after treatment
Summary of the method: as §1

Triticum aestivum [7] = test: Herbicidal activity, preemergence test; conditions: pre; sprayed onto soil, 800 g of active material per hectare; evaluated 3 weeks after treatment
Summary of the method: as §1

Zea mays [8] = test: Herbicidal activity, preemergence test; conditions: pre; sprayed onto soil, 800 g of active material per hectare; evaluated 3 weeks after treatment
Summary of the method: as §1

Ambrosia artemisifolia [9] = test: Herbicidal activity, preemergence test; conditions: pre; sprayed onto soil, 800 g of active material per hectare; evaluated 3 weeks after treatment
Summary of the method: as §1

Setaria viridis [10] = test: Herbicidal activity, preemergence test; conditions: pre; sprayed onto soil, 800 g of active material per hectare; evaluated 3 weeks after treatment
Summary of the method: as §1

Glycine max [11] = test: Herbicidal activity, preemergence test; conditions: pre; sprayed onto soil, 800 g of active material per hectare; evaluated 3 weeks after treatment
Summary of the method: as §1

Veronica persica [12] = test: Herbicidal activity, preemergence test; conditions: pre; sprayed onto soil, 800 g of active material per hectare; evaluated 3 weeks after treatment
Summary of the method: as §1

Papaver rhoeas [13] = test: Herbicidal activity, preemergence test; conditions: pre; sprayed onto soil, 800 g of active material per hectare; evaluated 3 weeks after treatment
Summary of the method: as §1

Ipomoea hederacea [14] = test: Herbicidal activity, preemergence test; conditions: pre; sprayed onto soil, 800 g of active material per hectare; evaluated 3 weeks after treatment
Summary of the method: as §1

Stellaria media [15] = test: Herbicidal activity, preemergence test; conditions: pre; sprayed onto soil, 800 g of active material per hectare; evaluated 3 weeks after treatment
Summary of the method: as §1

Alopecurus myosuroides [16] = test: Herbicidal activity, preemergence test; conditions: pre; sprayed onto soil, 800 g of active material per hectare; evaluated 3 weeks after treatment
Summary of the method: as §1

Galium aparine [17] = test: Herbicidal activity, preemergence test; conditions: pre; sprayed onto soil, 800 g of active material per hectare; evaluated 3 weeks after treatment
Summary of the method: as §1

Lamium purpureum [18] = test: Herbicidal activity, preemergence test; conditions: pre; sprayed onto soil, 800 g of active material per hectare; evaluated 3 weeks after treatment
Summary of the method: as §1

Abutilon theophrasti [19] = test: Herbicidal activity, postemergence test; conditions: post; sprayed onto seedling plants, 800 g of active material per hectare; evaluated 2 weeks after treatment
Summary of the method: as §1

Matricaria inodora [20] = test: Herbicidal activity, postemergence test; conditions: post; sprayed onto seedling plants, 800 g of active material per hectare; evaluated 2 weeks after treatment
Summary of the method: as §1

Gossypium hirsutum [21] = test: Herbicidal activity, postemergence test; conditions: post; sprayed onto seedling plants, 800 g of active material per hectare; evaluated 2 weeks after treatment
Summary of the method: as §1

Chenopodium album [22] = test: Herbicidal activity, postemergence test; conditions: post; sprayed onto seedling plants, 800 g of active material per hectare; evaluated 2 weeks after treatment
Summary of the method: as §1

Hordeum vulgare [23] = test: Herbicidal activity, postemergence test; conditions: post; sprayed onto seedling plants, 800 g of active material per hectare; evaluated 2 weeks after treatment
Summary of the method: as §1

Amaranthus retroflexus [24] = test: Herbicidal activity, postemergence test; conditions: post; sprayed onto seedling plants, 800 g of active material per hectare; evaluated 2 weeks after treatment
Summary of the method: as §1

Triticum aestivum [25] = test: Herbicidal activity, postemergence test; conditions: post; sprayed onto seedling plants, 800 g of active material per hectare; evaluated 2 weeks after treatment
Summary of the method: as §1

Zea mays [26] = test: Herbicidal activity, postemergence test; conditions: post; sprayed onto seedling plants, 800 g of active material per hectare; evaluated 2 weeks after treatment
Summary of the method: as §1

Ambrosia artemisifolia [27] = test: Herbicidal activity, postemergence test; conditions: post; sprayed onto seedling plants, 800 g of active material per hectare; evaluated 2 weeks after treatment
Summary of the method: as §1

Setaria viridis [28] = test: Herbicidal activity, postemergence test; conditions: post; sprayed onto seedling plants, 800 g of active material per hectare; evaluated 2 weeks after treatment
Summary of the method: as §1

Glycine max [29] = test: Herbicidal activity, postemergence test; conditions: post; sprayed onto seedling plants, 800 g of active material per hectare; evaluated 2 weeks after treatment
Summary of the method: as §1

Veronica persica [30] = test: Herbicidal activity, postemergence test; conditions: post; sprayed onto seedling plants, 800 g of active material per hectare; evaluated 2 weeks after treatment
Summary of the method: as §1

Papaver rhoeas [31] = test: Herbicidal activity, postemergence test; conditions: post; sprayed onto seedling plants, 800 g of active material per hectare; evaluated 2 weeks after treatment
Summary of the method: as §1

Ipomoea hederacea [32] = test: Herbicidal activity, postemergence test; conditions: post; sprayed onto seedling plants, 800 g of active material per hectare; evaluated 2 weeks after treatment
Summary of the method: as §1

Stellaria media [33] = test: Herbicidal activity, postemergence test; conditions: post; sprayed onto seedling plants, 800 g of active material per hectare; evaluated 2 weeks after treatment
Summary of the method: as §1

Alopecurus myosuroides [34] = test: Herbicidal activity, postemergence test; conditions: post; sprayed onto seedling plants, 800 g of active material per hectare; evaluated 2 weeks after treatment
Summary of the method: as §1

Galium aparine [35] = test: Herbicidal activity, postemergence test; conditions: post; sprayed onto seedling plants, 800 g of active material per hectare; evaluated 2 weeks after treatment
Summary of the method: as §1

Lamium purpureum [36] = test: Herbicidal activity, postemergence test; conditions: post; sprayed onto seedling plants, 800 g of active material per hectare; evaluated 2 weeks after treatment
Summary of the method: as §1

| Structure (SMILES) | ABUTH control rating (0-9) (Abutilon theophrasti [1]) | MATIN control rating (0-9) (Matricaria inodora [2]) | GOSHI control rating (0-9) (Gossypium hirsutum [3]) | CHEAL control rating (0-9) (Chenopodium album [4]) | HORVW control rating (0-9) (Hordeum vulgare [5]) | AMARE control rating (0-9) (Amaranthus retroflexus [6]) | TRZAW control rating (0-9) (Triticum aestivum [7]) | ZEAMX control rating (0-9) (Zea mays [8]) | AMBEL control rating (0-9) (Ambrosia artemisifolia [9]) | SETVI control rating (0-9) (Setaria viridis [10]) | GLXMA control rating (0-9) (Glycine max [11]) | VERPE control rating (0-9) (Veronica persica [12]) | PAPRH control rating (0-9) (Papaver rhoeas [13]) | IPOHE control rating (0-9) (Ipomoea hederacea [14]) | STEME control rating (0-9) (Stellaria media [15]) | ALOMY control rating (0-9) (Alopecurus myosuroides [16]) | GALAP control rating (0-9) (Galium aparine [17]) | LAMPU control rating (0-9) (Lamium purpureum [18]) | ABUTH control rating (0-9) (Abutilon theophrasti [19]) | MATIN control rating (0-9) (Matricaria inodora [20]) | further results |
| --- | --- | --- | --- | --- | --- | --- | --- | --- | --- | --- | --- | --- | --- | --- | --- | --- | --- | --- | --- | --- | --- |
| C[C@H](NC(=O)c1nnc(-c2ccccc2Cl)o1)c1ccccc1 [Example 21] | 0 (no effect) | 6 (herbicidal effect) | 0 (no effect) | 2 (slight effect) | 0 (no effect) | 3 (moderate effect) | 0 (no effect) | 0 (no effect) | 0 (no effect) | 1 (trace effect) | 0 (no effect) | 9 (complete kill) | 9 (complete kill) | 1 (trace effect) | 5 (definite injury) | 0 (no effect) | 0 (no effect) | 5 (definite injury) | 5 (definite injury) | 4 (injury) | GOSHI control rating (0-9) (Gossypium hirsutum [21]): 8 (approaching complete kill); CHEAL control rating (0-9) (Chenopodium album [22]): 7 (good herbicidal effect); HORVW control rating (0-9) (Hordeum vulgare [23]): 1 (trace effect); AMARE control rating (0-9) (Amaranthus retroflexus [24]): 8 (approaching complete kill); TRZAW control rating (0-9) (Triticum aestivum [25]): 2 (slight effect); ZEAMX control rating (0-9) (Zea mays [26]): 2 (slight effect); AMBEL control rating (0-9) (Ambrosia artemisifolia [27]): 6 (herbicidal effect); SETVI control rating (0-9) (Setaria viridis [28]): 6 (herbicidal effect); GLXMA control rating (0-9) (Glycine max [29]): 2 (slight effect); VERPE control rating (0-9) (Veronica persica [30]): 7 (good herbicidal effect); PAPRH control rating (0-9) (Papaver rhoeas [31]): 5 (definite injury); IPOHE control rating (0-9) (Ipomoea hederacea [32]): 4 (injury); STEME control rating (0-9) (Stellaria media [33]): 9 (complete kill); ALOMY control rating (0-9) (Alopecurus myosuroides [34]): 0 (no effect); GALAP control rating (0-9) (Galium aparine [35]): 4 (injury); LAMPU control rating (0-9) (Lamium purpureum [36]): 6 (herbicidal effect) |
| C[C@H](NC(=O)c1nnc(-c2ccc(C(F)(F)F)cc2)o1)c1ccccc1 [Example 23] | 5 (definite injury) | 8 (approaching complete kill) | 0 (no effect) | 8 (approaching complete kill) | 0 (no effect) | 9 (complete kill) | 0 (no effect) | 1 (trace effect) | 0 (no effect) | 8 (approaching complete kill) | 0 (no effect) | 9 (complete kill) | 9 (complete kill) | 0 (no effect) | 8 (approaching complete kill) | 4 (injury) | 0 (no effect) | 7 (good herbicidal effect) | 9 (complete kill) | 8 (approaching complete kill) | GOSHI control rating (0-9) (Gossypium hirsutum [21]): 9 (complete kill); CHEAL control rating (0-9) (Chenopodium album [22]): 9 (complete kill); HORVW control rating (0-9) (Hordeum vulgare [23]): 4 (injury); AMARE control rating (0-9) (Amaranthus retroflexus [24]): 9 (complete kill); TRZAW control rating (0-9) (Triticum aestivum [25]): 3 (moderate effect); ZEAMX control rating (0-9) (Zea mays [26]): 3 (moderate effect); AMBEL control rating (0-9) (Ambrosia artemisifolia [27]): 8 (approaching complete kill); SETVI control rating (0-9) (Setaria viridis [28]): 9 (complete kill); GLXMA control rating (0-9) (Glycine max [29]): 5 (definite injury); VERPE control rating (0-9) (Veronica persica [30]): 9 (complete kill); PAPRH control rating (0-9) (Papaver rhoeas [31]): 8 (approaching complete kill); IPOHE control rating (0-9) (Ipomoea hederacea [32]): 8 (approaching complete kill); STEME control rating (0-9) (Stellaria media [33]): 9 (complete kill); ALOMY control rating (0-9) (Alopecurus myosuroides [34]): 3 (moderate effect); GALAP control rating (0-9) (Galium aparine [35]): 7 (good herbicidal effect); LAMPU control rating (0-9) (Lamium purpureum [36]): 9 (complete kill) |
